# How the values were obtained:
# [1] = test system: murine bone marrow-derived macrophages; assay: area under cytotoxicity dose-response curve (AUC (% cytotoxicity x dose, relative)); higher = more cytotoxic; settings: duration: 6 days; dose range: 0.13-80 uM, 8 points
# How it was run: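 Primary murine bone marrow-derived macrophages in opaque 384-well plates were exposed to an 8-point, 2.5-fold dilution series (final 80–0.13 μM) for 6 days at 37 °C in 5% CO2. Viability was read with Promega's CellTiter-Glo luminescence assay, and percent cytotoxicity was normalised to vehicle and positive control wells. Cytotoxicity is reported as the area under the dose–response curve, calculated in GraphPad Prism version 10.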
# [2] = test system: Mycobacterium tuberculosis CDC1551 (intracellular, in murine BMDM); assay: area under intracellular growth-inhibition dose-response curve (AUC (% inhibition x dose, relative)); higher = more potent; settings: duration: 6 days; dose range: 0.13-80 uM, 8 points
# How it was run: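 Macrophages derived from primary murine bone marrow were infected for 1 h at multiplicity of infection 1 with luciferase-expressing M. tuberculosis CDC1551, then treated for 6 days at final concentrations of 80–0.13 μM. Bright-Glo luciferin signal, normalised to a reference drug control and the lowest-concentration wells, gave the growth readout. Area under the growth-inhibition dose–response curve was then calculated in GraphPad Prism.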
compound,measurement,setting,value
O=C(OCC(=O)c1ccc(Cl)cc1Cl)c1ccccn1,area under cytotoxicity dose-response curve,[1],10.1
same,area under intracellular growth-inhibition dose-response curve,[2],205
Cc1cc(C(=O)NCc2cccs2)cs1,area under cytotoxicity dose-response curve,[1],9.86
same,area under intracellular growth-inhibition dose-response curve,[2],25.9
CC1CCC(C(C)C)C(OC(=O)Cn2c(-c3ccc(Br)cc3)[n+](C)c3ccccc32)C1.[Cl-] (stereo not drawn),area under cytotoxicity dose-response curve,[1],147
same,area under intracellular growth-inhibition dose-response curve,[2],128
CN1/C(=C/C(=O)c2cccs2)Sc2ccccc21,area under cytotoxicity dose-response curve,[1],48
same,area under intracellular growth-inhibition dose-response curve,[2],139
O=C(NCCC1=CCCCC1)c1ccc(F)cc1,area under cytotoxicity dose-response curve,[1],3.13
same,area under intracellular growth-inhibition dose-response curve,[2],122
COc1ccc(CNC(=O)c2c(C)nc3ccccn23)cc1,area under cytotoxicity dose-response curve,[1],8.66
same,area under intracellular growth-inhibition dose-response curve,[2],268
Cc1nnc(N2CCCCC2)c2ccccc12,area under cytotoxicity dose-response curve,[1],15.8
same,area under intracellular growth-inhibition dose-response curve,[2],117
CCCCn1c(N)c(N(CCOC)C(=O)c2oc3ccc(Br)cc3c2C)c(=O)[nH]c1=O,area under cytotoxicity dose-response curve,[1],7.25
same,area under intracellular growth-inhibition dose-response curve,[2],207
CCOC(=O)c1c(-c2ccccc2)oc2ccc(O)c(CN3CCCC3)c12,area under cytotoxicity dose-response curve,[1],< 0
same,area under intracellular growth-inhibition dose-response curve,[2],278
O=C(COc1ccccc1)N/N=C/c1ccc([N+](=O)[O-])o1,area under cytotoxicity dose-response curve,[1],14.3
same,area under intracellular growth-inhibition dose-response curve,[2],209
O=C(CCCOc1ccc(Cl)cc1Cl)Nc1ccccc1C(=O)O,area under cytotoxicity dose-response curve,[1],0.729
same,area under intracellular growth-inhibition dose-response curve,[2],83.7
CCCOc1ccc(C(=O)CCC(=O)NNC(=O)c2ccncc2)cc1,area under cytotoxicity dose-response curve,[1],< 0
same,area under intracellular growth-inhibition dose-response curve,[2],269
O=[N+]([O-])c1ccc(CN2CCN(c3ccc(Cl)cc3)CC2)o1,area under cytotoxicity dose-response curve,[1],33.9
same,area under intracellular growth-inhibition dose-response curve,[2],222
Cc1c(Cl)sn(-c2ccc(Cl)cc2)c1=O,area under cytotoxicity dose-response curve,[1],60.1
same,area under intracellular growth-inhibition dose-response curve,[2],130
Cc1nn(Cc2ccccc2)c(Cl)c1C(=O)NCc1ccco1,area under cytotoxicity dose-response curve,[1],16.8
same,area under intracellular growth-inhibition dose-response curve,[2],104
NC(=O)C[C@H](NC(=O)c1ccc(Cl)cc1)C(=O)OCc1ccccc1,area under cytotoxicity dose-response curve,[1],< 0
same,area under intracellular growth-inhibition dose-response curve,[2],16.5
Cc1nnc(SCC2=C(C(=O)O)N3C(=O)C(NC(=O)COc4ccc(F)cc4)C3SC2)s1 (stereo not drawn),area under cytotoxicity dose-response curve,[1],2.64
same,area under intracellular growth-inhibition dose-response curve,[2],212
COc1c(/C=N/NC(N)=S)c(C)nn1-c1ccccc1,area under cytotoxicity dose-response curve,[1],32.6
same,area under intracellular growth-inhibition dose-response curve,[2],194
CC(C(=O)NC1C(=O)N2C(C(=O)O)=C(CSc3nnnn3C)CSC12)n1cc(Cl)cn1 (stereo not drawn),area under cytotoxicity dose-response curve,[1],23.7
same,area under intracellular growth-inhibition dose-response curve,[2],174
O=C(c1ccc([N+](=O)[O-])o1)N1CCN(Cc2ccccc2)CC1,area under cytotoxicity dose-response curve,[1],4.42
same,area under intracellular growth-inhibition dose-response curve,[2],151
Cc1ccc(S(=O)(=O)c2ccc([N+](=O)[O-])cn2)cc1,area under cytotoxicity dose-response curve,[1],102
same,area under intracellular growth-inhibition dose-response curve,[2],< 0
Cc1cc(O)c2c(n1)c(C)cc1[nH]c(C)c(C)c12,area under cytotoxicity dose-response curve,[1],< 0
same,area under intracellular growth-inhibition dose-response curve,[2],137
O=C(CSc1cccc[n+]1[O-])CSc1cccc[n+]1[O-],area under cytotoxicity dose-response curve,[1],9.55
same,area under intracellular growth-inhibition dose-response curve,[2],29.1
O=C(Nc1ccc(C(=O)Oc2ccccc2)c(O)c1)c1ccco1,area under cytotoxicity dose-response curve,[1],4.02
same,area under intracellular growth-inhibition dose-response curve,[2],223
c1ccc(-c2noc(CC3CCCCC3)n2)nc1,area under cytotoxicity dose-response curve,[1],5.13
same,area under intracellular growth-inhibition dose-response curve,[2],200
O=C(c1ccc(Cl)s1)N1CCN(c2ncccn2)CC1,area under cytotoxicity dose-response curve,[1],31.4
same,area under intracellular growth-inhibition dose-response curve,[2],86.8
NS(=O)(=O)c1ccc(CCNC(=S)Nc2ccccc2)cc1,area under cytotoxicity dose-response curve,[1],< 0
same,area under intracellular growth-inhibition dose-response curve,[2],221
CC(NC(=O)c1cc([N+](=O)[O-])cc([N+](=O)[O-])c1)C1CC2CCC1C2 (stereo not drawn),area under cytotoxicity dose-response curve,[1],64.9
same,area under intracellular growth-inhibition dose-response curve,[2],257
Cn1c(/C=C/c2ccc([N+](=O)[O-])o2)nc2ccccc2c1=O,area under cytotoxicity dose-response curve,[1],53.2
same,area under intracellular growth-inhibition dose-response curve,[2],85.8
CC(=O)c1cccc(NC(=O)NC2CCCCCCC2)c1,area under cytotoxicity dose-response curve,[1],36.2
same,area under intracellular growth-inhibition dose-response curve,[2],244
Cc1ccc(C(=O)NC(C)C2CC3CCC2C3)cc1 (stereo not drawn),area under cytotoxicity dose-response curve,[1],< 0
same,area under intracellular growth-inhibition dose-response curve,[2],267
CC(=NNC(=O)c1ccncc1)c1cccc(Br)c1,area under cytotoxicity dose-response curve,[1],< 0
same,area under intracellular growth-inhibition dose-response curve,[2],234
COc1cc(-c2cc(C(=O)Nc3ccncc3)c3ccccc3n2)cc(OC)c1OC,area under cytotoxicity dose-response curve,[1],0.318
same,area under intracellular growth-inhibition dose-response curve,[2],32.8
O=C(Nc1cccc([N+](=O)[O-])c1)NC1CCCCCCC1,area under cytotoxicity dose-response curve,[1],14
same,area under intracellular growth-inhibition dose-response curve,[2],228
CCCCCCCn1c(=O)c(C(=O)Nc2cnccn2)c(O)c2ccccc21,area under cytotoxicity dose-response curve,[1],7.68
same,area under intracellular growth-inhibition dose-response curve,[2],66
FC(F)(F)c1nnc2ccc(Cl)nn12,area under cytotoxicity dose-response curve,[1],62.7
same,area under intracellular growth-inhibition dose-response curve,[2],36.2
O=C(N/N=C\c1ccc(Cl)s1)C1COc2ccccc2O1 (stereo not drawn),area under cytotoxicity dose-response curve,[1],2.47
same,area under intracellular growth-inhibition dose-response curve,[2],129
Br.CCCc1cc(-c2nc(-c3ccc(Cl)cc3)cs2)ccn1,area under cytotoxicity dose-response curve,[1],78.3
same,area under intracellular growth-inhibition dose-response curve,[2],163
CNC(=S)Nc1ccc(OCc2ccccc2)cc1,area under cytotoxicity dose-response curve,[1],75.3
same,area under intracellular growth-inhibition dose-response curve,[2],242
Cc1[nH]c2ccccc2c1C(=O)C(C)OC(=O)c1ccc([N+](=O)[O-])o1 (stereo not drawn),area under cytotoxicity dose-response curve,[1],< 0
same,area under intracellular growth-inhibition dose-response curve,[2],3.96
Cc1c(C)c2cccnc2c2ncccc12,area under cytotoxicity dose-response curve,[1],36.7
same,area under intracellular growth-inhibition dose-response curve,[2],162
O=C(COc1ccccc1)NCc1ccccc1,area under cytotoxicity dose-response curve,[1],14.8
same,area under intracellular growth-inhibition dose-response curve,[2],163
N=C(NCCCCCCNC(=N)NC(=N)Nc1ccc(Cl)cc1)NC(=N)Nc1ccc(Cl)cc1,area under cytotoxicity dose-response curve,[1],165
same,area under intracellular growth-inhibition dose-response curve,[2],89.5
Cc1ccc2nc(-c3ccc(NC(=S)NC(=O)C(C)C)cc3)sc2c1,area under cytotoxicity dose-response curve,[1],32.6
same,area under intracellular growth-inhibition dose-response curve,[2],174
O=C(NCc1ccccc1)c1ccc(Br)o1,area under cytotoxicity dose-response curve,[1],19.6
same,area under intracellular growth-inhibition dose-response curve,[2],267
CC(NC(=O)c1cccs1)c1ccc(Cl)cc1 (stereo not drawn),area under cytotoxicity dose-response curve,[1],2.59
same,area under intracellular growth-inhibition dose-response curve,[2],251
Cc1ccccc1N1CCN(Cc2ccc([N+](=O)[O-])o2)CC1,area under cytotoxicity dose-response curve,[1],< 0
same,area under intracellular growth-inhibition dose-response curve,[2],263
CC(C)c1ccc(NC(=S)NC2CCCCCC2)cc1,area under cytotoxicity dose-response curve,[1],< 0
same,area under intracellular growth-inhibition dose-response curve,[2],141
Cn1c(NC(=S)Nc2ccccc2)nc2ccccc21,area under cytotoxicity dose-response curve,[1],55.9
same,area under intracellular growth-inhibition dose-response curve,[2],206
CCCC(=O)N1CCN(c2ccc(NC(=O)c3ccc([N+](=O)[O-])o3)cc2)CC1,area under cytotoxicity dose-response curve,[1],129
same,area under intracellular growth-inhibition dose-response curve,[2],107
CCCN=C1C(=O)C2=C(C(O)=C1C)N1CC3NC3[C@@]1(OC)C2COC(N)=O (stereo partly drawn),area under cytotoxicity dose-response curve,[1],121
same,area under intracellular growth-inhibition dose-response curve,[2],166
NC1=NC[C@@H](CC2CCCCC2)N1CCc1cc(C(F)(F)F)cc(C(F)(F)F)c1,area under cytotoxicity dose-response curve,[1],109
same,area under intracellular growth-inhibition dose-response curve,[2],52.6
CS(=O)(=O)Nc1ccccc1C(=O)OCC(=O)N1CCC(c2ccccc2)=N1,area under cytotoxicity dose-response curve,[1],< 0
same,area under intracellular growth-inhibition dose-response curve,[2],115
c1ccc2c(c1)-c1cccc3cncc-2c13,area under cytotoxicity dose-response curve,[1],36.8
same,area under intracellular growth-inhibition dose-response curve,[2],200

# Source: the supplement of paper PMC11997997
